TGI data for seven compounds are collected here from PubChem BioAssay (NCI).

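These data come from cells grown in 96-well plates and exposed to compound for 48 hours at five concentrations. TGI: total growth inhibition.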

Some test systems named below: 786-0 renal; A549 NSCLC; CAKI-1 renal; HOP-62 NSCLC; HT29 colon; IGROV1 ovarian; K-562 leukemia; LOX IMVI melanoma; MALME-3M melanoma; MDA-N; NCI-H460 lung; RXF 393 renal; SF-268 CNS; SK-MEL-28 melanoma; SK-OV-3 ovarian; SNB-19 CNS; TK-10 renal; U251 CNS; UACC-257 melanoma; UACC-62 melanoma.
Assay in all cases: inhibition of tumour cell growth, NCI panel, 48 h

On to `O=C1Nc2ccccc2/C1=C\c1c(Cl)nc2n1CCS2`, for which the TGI in the test on 786-0 renal is 60.6 µM; with A549 NSCLC, more than 100 µM; in the test with CAKI-1 renal it was more than 100 µM; in the test with HOP-62 NSCLC it was more than 100 µM; in the test on HT29 colon it was more than 100 µM; with IGROV1 ovarian it was more than 100 µM. The TGI in the test on K-562 leukemia is more than 100 µM; in the test on LOX IMVI melanoma it was more than 100 µM; in the test with MALME-3M melanoma, 62.1 µM; with MDA-N it was 43.6 µM; with NCI-H460 lung, 45.3 µM; in the test on RXF 393 renal it was 57.3 µM. Also, the TGI was 94.8 µM with SF-268 CNS; more than 100 µM with SK-MEL-28 melanoma; 74.9 µM in the test with SK-OV-3 ovarian; more than 100 µM in the test on SNB-19 CNS; 49.9 µM in the test with TK-10 renal; 75.6 µM in the test on U251 CNS. In addition, the TGI with UACC-257 melanoma is 30.6 µM; in the test with UACC-62 melanoma, 32.2 µM.
As for `O[C@H]1[C@H](O)[C@@H](Cn2nnc(-c3ccccc3)c2-c2ccccc2)OCO[C@@H]1Cn1nnc(-c2ccccc2)c1-c1ccccc1`, the TGI in the test with 786-0 renal turned out to be 7.39 µM; in the test on A549 NSCLC it was 13.5 µM; in the test with CAKI-1 renal, 14.2 µM; in the test with HOP-62 NSCLC, 29 µM; in the test on HT29 colon, 3.61 µM; with IGROV1 ovarian, 14.2 µM. The TGI in the test with K-562 leukemia was more than 100 µM; with LOX IMVI melanoma, 5.85 µM; in the test with MALME-3M melanoma, 29.6 µM; in the test on MDA-N it was 9.97 µM; in the test on NCI-H460 lung, 13.4 µM; in the test with RXF 393 renal, 9.41 µM. Also, the TGI with SF-268 CNS was 25 µM; in the test on SK-MEL-28 melanoma, more than 67.1 µM; in the test on SK-OV-3 ovarian, 27.2 µM; in the test with SNB-19 CNS, 55.4 µM; with TK-10 renal it was 19 µM; with U251 CNS it was more than 41 µM. The TGI turned out to be 15.1 µM in the test with UACC-257 melanoma and 11.7 µM with UACC-62 melanoma.
As for `Cc1ccc(C)c(COCCOCn2c(=O)[nH]c(=O)c3cc(Br)ccc32)c1`, the TGI in the test with 786-0 renal, in the test on A549 NSCLC, with CAKI-1 renal, in the test with HOP-62 NSCLC, in the test with HT29 colon and with IGROV1 ovarian was more than 100 µM each time. For the same compound, the TGI with K-562 leukemia, in the test on LOX IMVI melanoma, in the test on MALME-3M melanoma, in the test with MDA-N, with NCI-H460 lung and with RXF 393 renal was more than 100 µM in each case. In addition, the TGI in the test with SF-268 CNS, in the test with SK-MEL-28 melanoma, with SK-OV-3 ovarian, with SNB-19 CNS, in the test on TK-10 renal and with U251 CNS was more than 100 µM each time. Moreover, the TGI in the test with UACC-257 melanoma and in the test on UACC-62 melanoma was more than 100 µM in each case.
For `CCN(CC)CCNC(=O)c1nn(-c2ccc(Cl)cc2)c2c1CCc1cc(OC)ccc1-2`, the TGI was found to be 12 µM in the test on 786-0 renal; 21.3 µM in the test with A549 NSCLC; 19.9 µM with CAKI-1 renal; 29.2 µM in the test with HOP-62 NSCLC; 6.7 µM in the test with HT29 colon; 26.6 µM with IGROV1 ovarian. Besides, the TGI in the test with K-562 leukemia amounted to 11.1 µM; with LOX IMVI melanoma, 4.11 µM; with MALME-3M melanoma it was 2.95 µM; in the test with MDA-N, 10.2 µM; in the test with NCI-H460 lung, 11.8 µM; in the test with RXF 393 renal, 8.99 µM. Besides, the TGI with SF-268 CNS was 22.2 µM; with SK-MEL-28 melanoma, 4.23 µM; with SK-OV-3 ovarian, 27.5 µM; with SNB-19 CNS, 23.2 µM; in the test with TK-10 renal, 23.8 µM; with U251 CNS, 17.8 µM. For the same compound, the results for the TGI with UACC-257 melanoma and with UACC-62 melanoma were 3.57 µM and 7.58 µM, respectively.
Take `COc1cc(Nc2nc3ccccc3nc2C(C)C)cc(OC)c1OC`: the TGI in the test on 786-0 renal, in the test with A549 NSCLC, in the test on CAKI-1 renal, in the test with HOP-62 NSCLC, in the test on HT29 colon and with IGROV1 ovarian was more than 100 µM throughout. The TGI with K-562 leukemia, in the test with LOX IMVI melanoma, with MALME-3M melanoma, in the test on MDA-N, in the test with NCI-H460 lung and in the test on RXF 393 renal was more than 100 µM in each case. Besides, the TGI with SF-268 CNS, in the test with SK-MEL-28 melanoma, in the test on SK-OV-3 ovarian, with SNB-19 CNS, in the test with TK-10 renal and in the test on U251 CNS was more than 100 µM in each case. Besides, the TGI in the test on UACC-257 melanoma and in the test on UACC-62 melanoma was more than 100 µM in each case.
Consider `COc1ccc(/C=C(/c2ccccc2)c2c(C)cc(C)c(/C(=C\c3ccc(OC)cc3)c3ccccc3)c2N=Nc2cc(C)cc(C)c2)cc1`, for which the TGI in the test on 786-0 renal, in the test on A549 NSCLC, with CAKI-1 renal, in the test on HOP-62 NSCLC, in the test with HT29 colon and in the test on IGROV1 ovarian was more than 100 µM in each case. The TGI is more than 100 µM in the test on K-562 leukemia; more than 100 µM in the test with LOX IMVI melanoma; 56.6 µM with MALME-3M melanoma; more than 100 µM in the test with MDA-N; more than 75.2 µM in the test with NCI-H460 lung; more than 95.9 µM in the test on RXF 393 renal. The TGI was more than 100 µM in the test with SF-268 CNS; more than 100 µM in the test on SK-MEL-28 melanoma; more than 100 µM with SK-OV-3 ovarian; more than 100 µM in the test with SNB-19 CNS; more than 74.4 µM with TK-10 renal; more than 100 µM with U251 CNS. In addition, the values for the TGI in the test with UACC-257 melanoma and with UACC-62 melanoma were 18.8 µM and more than 100 µM, respectively.
Consider `N=C(N)SCc1ccc(N=C=S)cc1`, for which the TGI in the test with 786-0 renal stood at 26.7 µM; in the test with A549 NSCLC it was 30.5 µM; in the test with CAKI-1 renal, 25.4 µM; with HOP-62 NSCLC, 32.5 µM; in the test with HT29 colon it was 40.3 µM; with IGROV1 ovarian, 26.7 µM. In addition, the TGI in the test with K-562 leukemia is 44 µM; with LOX IMVI melanoma, 28 µM; in the test on MALME-3M melanoma it was 27.4 µM; in the test on MDA-N, 26.6 µM; in the test on NCI-H460 lung, 30.4 µM; with RXF 393 renal it was 17.8 µM. Besides, the TGI is 35.1 µM in the test with SF-268 CNS; 28.7 µM in the test with SK-MEL-28 melanoma; 31.1 µM with SK-OV-3 ovarian; 26.7 µM in the test with SNB-19 CNS; 28.1 µM in the test on TK-10 renal; 29 µM in the test on U251 CNS. For the same compound, the TGI in the test on UACC-257 melanoma was 25.8 µM; with UACC-62 melanoma it was 23.7 µM.
